In patent US7470550B2, “Method of evaluating cell activity” (Toyo Advanced Technologies Co., Ltd., priority 2001, dated 2008):

Experiments:
Type in all cases: cell-based
[1] = test system: Mast cells; experiment: SPR measurement of reaction of mast cells on an antigen
Protocol: (§1) The method of the invention will be explained in more detail by the following examples, which are not intended to limit the scope of the invention. In the following examples, SPR-CELLIA (Japan Laser Electronic Co.) was used as an SPR analyzer. The sensor chip for amine coupling was prepared as follows.
(§2) In 10 μM solution of 4,4-dithiodibutyric acid in ethanol was immersed a sensor chip and stirred for 30 minutes. Thereafter, the chip was washed with dry ethanol and dried. Water-soluble carbodiimide (25 mg) was dissolved in 1 ml of MilliQ water, and 15mg of N-hydroxysuccinimide in 9 ml of 1,4-dioxane, respectively. Both solutions were mixed immediately before the dried sensor chip was immersed therein and the mixture stirred for 10 minutes. Then, there was added 10 ml of MilliQ water, and the mixture was stirred for 5 minutes. The chip was washed with MilliQ water and preserved in MilliQ water.
Mast cells (2×10^5 cells/ml, 70 μl) were immobilized on a sensor chip in the same manner as in Example 1. IgE was added to a measuring portion, and incubated in a CO2 incubator at 37° C. overnight. The chip was set on an SPR analyzer, and a running buffer (PIPES buffer, pH 7.2) was perfused at a flow rate of 15 μl/min at a fixed temperature of 37° C. Then, 60 μl of 100 ng/ml DNP-HSA (dinitrophenyl-human serum albumin) or 10 μg/ml DNP-lysine was injected, while a running buffer was perfused continuously, and the change of signal was measured. The composition of PIPES (piperaine-N,N′-bis[2-ethane-sulfonic acid]; 1,4-piperzine-diethanesulfonic acid) buffer is as shown in Table 1.

[2] = test system: Papilla cells; experiment: SPR measurement of reaction of papilla cells (mesenchyme cells) with bFGF, with or without phosphorylation inhibitor; settings: for SPR signal from 10 minutes after the injection: 37° C., 1 μg/ml bFGF alone, or bFGF + 50 μM SU4984
Protocol: as §1, §2
Papilla cells were removed from a petri dish with 0.02% EDTA and suspended in a DMEM10 culture medium. The cells (2×10^5 cells/ml, 400 μl) were immobilized on a sensor chip in the same manner as in Example 1.
PBS was perfused at a flow rate of 15 μl/min at a fixed temperature of 37° C.; 1 μg/ml of bFGF alone was injected into a control portion, and 60 μl of μg/ml bFGF+50 μM phosphorylation inhibitor (SU4984) into a measuring portion; after a lapse of 42 seconds the circuit was closed and the change of signals was measured.

[3] = test system: CTLL-2 cells; experiment: SPR measurement of reaction of CTLL2 cells (suspended cells) with IL-2; settings: living CTLL-2 cells immobilized on sensor chip, 37° C., PBS perfusion 15 μl/min; IL-2 62.5 ng/ml, 60 μl
Description: In the method of the invention, cells are immobilized on a analyzer in the same manner as in the usual SPR measurement for vial cells, to which a stimulus as mentioned above is given to determine the signal as a change of permittivity in a conventional procedure.
as §1, §2
The suspension (30 μl)of CTLL-2 cells (2×10^5 cells/ml) in PBS were directly placed onto both of sensor chip-measuring portion and control portion, and the chip was blocked with 50 μl of 1% BSA. The sensor chip was equipped in a flow-cell unit of the SPR analyzer, of which the temperature was set at 37° C. and was perfused with PBS at a flow rate of 15 μl/min.

[4] = 10 μg/ml DNP-lysine, PIPES buffer pH 7.2, 37° C.
[5] = 60 μl of 100 ng/ml DNP-HSA, PIPES buffer pH 7.2, 37° C.

Molecule: N[C@@H](CCCCNc1ccc([N+](=O)[O-])cc1[N+](=O)[O-])C(=O)O [DNP-lysine]
- primary SPR signal in mast cells [1, 4]: primary signal generated by the binding of DNP-lysine was observed
- secondary SPR signal in mast cells [1, 4]: no secondary signal observed

Molecule: O=CN1CCN(c2ccc(/C=C3\C(=O)Nc4ccccc43)cc2)CC1 [SU4984]
- SPR signal from 10 minutes after the injection [2]: became plateau
- signal transduction caused by the binding of bFGF ([2]; bFGF + 50 μM SU4984): suppressed

Molecule: aFGF: agent which does not bind to CTLL-2 cells
- SPR signal (difference between measuring portion and control portion) [3]: no signal was observed

Molecule: bFGF: growth factor injected onto papilla cells; does not bind to CTLL-2 cells
- SPR signal (difference between measuring portion and control portion) [3]: no signal was observed
- SPR signal from 10 minutes after the injection [2]: ascended continuously

Molecule: dinitrophenyl-human serum albumin [DNP-HSA]
- primary SPR signal in mast cells (FIG. 3) ([1]; 100 ng/ml DNP-HSA, IgE sensitized versus unsensitized cells): no primary signal was recorded
- SPR signal in IgE sensitized mast cells [1, 5]: a strong signal was observed
- SPR signal in IgE unsensitized mast cells [1, 5]: no characteristic change

B1: pleiotrophin: agent which does not bind to CTLL-2 cells (protein, UniProt P21246 33-168, looked up)
Pleiotrophin: GKKEKPEKKVKKSDCGEWQWSVCVPTSGDCGLGTREGTRTGAECKQTMKTQRCKIPCNWKKQFGAECKYQFQAWGECDLNTALKTRTGSLKRALHNAECQKTVTISKPCGKLTKPKPQAESKKKKKEGKKQEKMLD
- SPR signal (difference between measuring portion and control portion) [3]: no signal was observed
